For this test, the target named is triosephosphate isomerase from G. lamblia (GlTIM; dGlTIM) (Giardia duodenalis, UniProt P36186, C202A). The experiment in a line: GDH-coupled TIM activity assay after […] h incubation at […] °C. It counts as biochemical.

Each structure is given as a SMILES string.

Usually IC50 stands for the concentration that inhibits the measured activity by half. As to `CCN(CC)C(=S)SSC(=S)N(CC)CC` [disulfiram, 1,1′,1″,1‴-[disulfanediylbis(carbonothioylnitrilo)]tetraethane], half-maximal inhibition (IC50) was put at 6.6 µM.

Values taken from article PMC5727346 (International Journal for Parasitology: Drugs and Drug …, 2017).
